Laboratory results published in patent US11434490B2, “Fluorogen-binding RNA aptamers” (CENTRE NATIONAL DE LA RECHERCHE SCIENTIFIQUE, priority 2017, dated 2022).
Entries after “also recorded” stand apart in the source; their conditions may differ.

B1: Mango II - A22U: Mango-II point mutant; SEQ ID NO: 6903 / 6905 (nucleic acid)
chain 1: GCGUACGAAGGAGAGGAGAGGUAGAGGAGAGUACGC
chain 2: GGCACGUACGAAGGAGAGGAGAGGUAGAGGAGAGUACGUGC
modifications: chemistry not given here

How the values were obtained:
[1] = Salt dependence of Mango/TO1-Biotin fluorescence: Mg2+ titration; details: in the presence of potassium; Mg2+ 256 mM
Method: (§1) FIG. 10|Salt dependence of new Mango variants. Dependence of fluorescence of each Mango for (a) K^+, (b) Na^+ in place of K^+, and (c) Mg^2+ ions in a buffer containing 140 mM K^+. […] 10 mM Tris buffer (pH 7.2) was used in place of phosphate of the WB buffer to avoid monovalent counter ions. Color-coding is as follows: Black—Mango I, Blue—Mango II, Green—Mango III, Orange—Mango IV. Hill coefficients are fitted to dark points. Points in lighter shade have been excluded from the fit. Error bars are standard deviations of three replicates.

[2] = Fluorescence titration, binding affinity for TO1-ME; details: ligand TO1-ME
Description: (§2) We determined the affinity and fluorescence enhancement of four compounds: TO1-OAc (TO1-acetate), TO1-ME (TO1-methylester), TO1-PA (TO1-propanylamide), TO1-PE (TO1-pentenoylester) (FIG. 42, Table 8 & 9). Binding affinity and fluorescence enhancement of TO1-OAc is drastically diminished, and nearly identical between the wild-type and A22U mutant. […] Further extension of the linker stabilizes the binding pocket by stacking on T3 but becomes sterically hindered by a bulky purine in position 22. The A22U mutation would limit steric clashes while preventing misfolding of the G-quadruplex core. Thus, the improved properties of the Mango-II A22U mutant may arise from improved packing of the linker of the fluorophore with an RNA with a homogeneous or predominant conformation.
(§3) Fluorescence readings were recorded using a Varian Cary Eclipse Spectrophotometer set to measure at the maximum excitation and emission wavelengths of the Mango II aptamer dye complex. Fluorescence titrations were performed in Mango selection buffer (WB: 140 mM KCl, 1 mM MgCl2, 10 mM NaH2PO4 pH 7.2, 0.05% Tween-20).

[3] = Temperature dependent fluorescence and UV melting; assay type: physicochemical
Method: FIG. 11|Temperature-dependent fluorescent and UV absorbance spectroscopy of new Mango variants. Line plots of temperature-dependent spectroscopy for Mango I (data obtained from previous work)^1, Mango II, Mango III, and Mango IV. […] Starting at 90° C., temperature was ramped down at a rate of 1° C./min to 20° C. (darker shade) and returned to 90° C. at a rate of 1° C./min (lighter shade).
Temperature dependence measurements were started at 90° C. decreasing at a rate of 1° C./min until 20° C., then returned at 1° C./min until 90° C. was reached. […] Temperature dependence of fluorescence and absorbance were measured using a Varian Cary Eclipse Fluorescence Spectrophotometer at excitation and emission peaks and a Varian Cary 100 Bio UV-visible spectrophotometer monitoring at 260 nm.

[4] = Salt dependence of Mango/TO1-Biotin fluorescence: K+ titration; assay type: binding; details: 25 nM RNA, 50 nM TO1-Biotin, 10 mM Tris pH 7.2
Method: as §1

[5] = Formaldehyde resistance assay; assay type: physicochemical; details: in vitro, TO1-Biotin
Method: FIG. 15|Effect of formaldehyde on Mango fluorescence. […] In (b) RNA is incubated with the corresponding amounts of formaldehyde first for one hour, then TO1-Biotin is added. Data for each panel is normalized to RFU at the 0% formaldehyde, 0 min point.
RNA Mango aptamers were incubated with TO1-Biotin in WB buffer for at least one hour until equilibrium fluorescence was reached. […] Fluorescence was measured as a kinetic run at a rate of 2 readings per minute using a Varian Cary Eclipse Fluorescence Spectrophotometer, ex/em=510±2.5/535±5 nm.

[6] = Brightness and photophysics of Mango fluorophore complexes; assay type: physicochemical
Description: FIG. 2|RNA Mango I, II, III and IV core sequences and their properties. (a) Color coded alignment of RNA Mango I, II, III and IV. G residues in yellow are protected from DMS cleavage (data from panel d) when folded in the presence of fluorophore. Quadruplex stacks and their associated propeller sequences are numbered 1 through 4. The GAAA isolation motif of Mango I, together with two adenines essential for binding, are shown in green and red respectively. Purple shading represents a flanking stem region common for all four Mango aptamers. Schematic: A tertiary structure schematic of Mango I, showing tier 1, 2 and 3 of its quadruplex structure (T1, T2 and T3) and color-coded as in (a). […] Bottom: Top view of the Mango I core (PBD ID: 5V3F), showing the T3 tier of the quadruplex and relevant propeller residues, color coding matches the schematic and panel a. […] KD values are shown next to each titration. (c) Same as for panel b but using 20 nM TO3-Biotin. Data for panels b and c have been normalized such that Mango I has a maximum fluorescence of 1. Error bars are standard deviation of three replicates. (d) DMS chemical protection patterns for the four Mango aptamers. 3′ end-labelled RNA (terminal ^32pCp shown as a black asterisk) was subjected to DMS chemical modification followed by reduction by NaBH4 and aniline cleavage as described in the methods. […] Legend: T1—denatured T1 ladder; OH—partial alkaline hydrolysis ladder; (−) DMS—denatured reaction with ddH2O added in place of DMS; 80° C.
FIG. 13|Photophysics: excitation/emission. (a) Excitation (dark curve) and emission (light curve) spectra of each Mango. All Mangos have Δex max=510 nm and Δem max=535 nm. Color-coding is as follows: Black—Mango I, Blue—Mango II, Green—Mango III, Red—Mango IV.
Fluorescence data was gathered using a Varian Cary Eclipse Spectrophotometer unless otherwise stated. […] Fluorescence was measured at the maximum excitation and emission wavelengths of each complex (FIG. 13).

[7] = Salt dependence of Mango/TO1-Biotin fluorescence: Na+ in place of K+; assay type: binding
Method: as §1

[8] = Fluorescence titration, binding affinity for TO1-OAc; details: ligand TO1-OAc
Description: as §2, §3

| Molecule | effect of high levels of Mg^2+ on fluorescence [1] | Kd [2] | thermostability [3] | Kd [4] | Hill Coefficients K^+ ([4]; * estimated from initial rise of fluorescence) | resistance to formaldehyde [5] | quantum yield of the TO1-Biotin complex [6] | brightness of the TO1-Biotin bound complex ([6]; TO1-Biotin complex) | brighter than Mango-I ([6]; TO1-Biotin, FIG. 2b) | fluorescence in the presence of sodium ions [7] | Hill Coefficients Na^+ ([7]; Na+ in place of K+, 25 nM RNA, 50 nM TO1-Biotin) | Kd [8] |
| --- | --- | --- | --- | --- | --- | --- | --- | --- | --- | --- | --- | --- |
| Mango-II: minimal construct engineered from isolate R2-1; SEQ ID NO: 6902 GCGUACGAAGGAGAGGAGAGGAAGAGGAGAGUACGC (chemistry not given here) | significantly resistant | 2.41 ± 0.54 nM | more thermostable than Mango-I | 39 ± 10 mM | 1.4 ± 0.2 | substantially resistant to formaldehyde; also recorded: remarkably formaldehyde resistant | 0.21 | 17,000 M^−1cm^−1 | 1.5 fold | did not fluoresce appreciably | 0.8 ± 0.1 | 56 ± 2 nM |
| B1 |  | 4.81 ± 1.02 nM |  |  |  |  |  |  |  |  |  | 43 ± 3 nM |
